Columns and labels:
[1] = test system: KRas mutant CT26 murine colon syngeneic tumors; test: CT26 syngeneic tumor growth, survival and tolerability; assay type: in vivo; conditions: table
Method: 1% CMC/0.5% Tween-80 (CMCT) was prepared by adding 960 mL of distilled water to a 1000 mL Pyrex® glass bottle with a stir bar in the bottom, and was used as the oral vehicle. […] Carboxymethylcellulose (5 g, CMC, low viscosity, Sigma C5678, Batch #033K0008) was added slowly, over one hour. The solution was stirred until the CMC dissolved and the solution was clear. 30 mg/kg MEK162 (Binimetinib, 100% active) was prepared as a white, homogeneous suspension in CMCT. MEK162 was administered in 10 mL/kg and dosed at 30 mg/kg (3.0 mg/mL) by oral gavage. To prepare, dry test compound (90 mg) was weighed and 30 mL CMCT added. Dose suspension was sonicated until a fine suspension was achieved (˜15 min). Final dose suspension was stored at 4° C. during live phase and sonicated to resuspend prior to dose administration. Dose suspension was prepared every 4-5 days or as needed. […]
Animals were monitored for tumor growth and body weight 2-3 times per week based on outgrowth kinetics. Tumor diameter was measured with digital calipers, and the tumor volume in mm^3 was calculated by the formula: Volume=((width)^2×length)/2. TGI was calculated on day 15. […]
Survival defined as morbidity, mortality or tumor size exceeding 1400 mm3. […] Cures: Animals with no palpable tumor at the end of the study were scored as cures. […]

[2] = test system: melanoma cell lines; test: Cell surface MHC class I expression, summary over the melanoma cell line panel; assay type: cell-based, human
Method: The goal of this study was to measure the effects of binimetinib on cell surface MHC class I expression in various melanoma cell lines. In this study, eight melanoma cell lines were evaluated: MEL-JUSO (NRAS Q61L mutation), IPC-298 (NRAS Q61L mutation), A375 (BRAF V600E, homozygous mutation), HS936.T (NRAS Q61K mutation and BRAF N581K mutation), MM485 (NRAS Q61R mutation), SK-MEL-2 (NRAS Q61R mutation), MM415 (NRAS Q61L mutation), Malme-3M (BRAF V600E, heterozygous mutation). The cells lines were seeded into flat bottom 96-well tissue culture plates at a density of 5000 cells per well and allowed to adhere overnight. The following day cells were treated with vehicle control (0.25% DMSO) or varying dilutions of Binimetinib (0.7 nM-25000 nM) for 1 hour. Cells were then treated with vehicle control or 100 ng/ml IFNgamma (R&D systems) for 72 hours. Cells were washed, trypsinized, and stained with Alexa Fluor® 647 anti-human HLA-A,B,C antibody (W6/32, eBioscience) and analyzed on a BD FACSCanto II flow cytometer. An IFNg titration and time course were performed for assay optimization. Maximal induction of MHC class I expression was seen 100 ng/mL of IFNγ (see, e.g., FIGS. 1 and 2).

[3] = test system: CT26 tumors; test: T-cell fraction and clonality by immune sequencing (mmTCRB assay); assay type: in vivo, mouse; conditions: 5/10 tumors per group, FIG. 15
Method: Animals were monitored for tumor growth and body weight 2-3 times per week based on outgrowth kinetics. Tumor diameter was measured with digital calipers, and the tumor volume in mm^3 was calculated by the formula: Volume=((width)^2×length)/2. TGI was calculated on day 15. Animals were removed from study if found moribund or if tumor volume exceeded 1400 mm^3. At that time, tumor tissue was harvested and frozen for later analysis of T-cell clonality by immune sequencing (Adaptive Biotech, San Diego, Calif.). Food, water, temperature and humidity were according to Pharmacology Testing Facility performance standards (SOP's) which are in accordance with the 1996 Guide for the Care and Use of Laboratory Animals (NRC) and AAALAC-International.
The mechanism of combination activity was investigated by analyzing T-cell fraction and clonality by immune sequencing in 5/10 tumors from each group (FIG. 15). To determine the effect of binimetinib on the T cell repertoire of CT26 tumors, analysis was performed of mouse T-cell diversity, clonality and abundance as potential biomarkers by survey level sequencing of mouse tumor samples using the mmTCRB assay. Clonality was determined by quantitating the extent of mono- or oligoclonal expansion by measuring the shape of the clone frequency distribution. […]

[4] = Binimetinib steady state exposure quoted in figure legends; assay type: in vivo

Q: Which “Median Survival” value [1] does the source give for `Cn1cnc2c(F)c(Nc3ccc(Br)cc3F)c(C(=O)NOCCO)cc21` [Binimetinib, 6-(4-bromo-2-fluorophenylamino)-7-fluoro-3-methyl-3H-benzoimidazole-5-carboxylic acid (2-hydroxyethoxy)-amide] here?
A: 26

Q: What about the “increase of IFNg-induced MHC class I” value ([2]; all tested cell lines, +IFNg) of the same compound?
A: 1.5-4 fold

Q: What about the “increase in MHC class I cell surface expression” value ([2]; in the 6 of 8 melanoma cell lines that responded, no IFNg) of the same compound?
A: 1.5-3 fold

Q: What about the T-cell clonality [3] of the same compound?
A: trend for decreased

Q: What about the T-cell fraction [3] of the same compound?
A: trend for decreased

Q: And the “Steady state Cmax, free fraction” value ([4]; free fraction)?
A: 26 nM

Q: What about the “Trough (day 15), free fraction” value ([4]; free fraction, day 15) of the same compound?
A: 8.1 nM

Q: And the Cmax ([4]; in vivo, total)?
A: 1000 nM
